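48-hour exposure; five concentrations; linearly interpolated endpoints. GI50 is the concentration that inhibits growth by half.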 Activity calls are given as the source filed them. No stated cut-off is given here; in the data, active = GI50 up to about 1.1 µM and inactive = higher.

Among the test systems are 786-0; A498; COLO 205; DU-145; HT-29; LOX IMVI; MDA-MB-435; MDA-N; MOLT-4; NCI-H226; OVCAR-4; SK-MEL-5; SNB-19; SNB-75; T47D; TK-10; U-251; UACC-257; UO-31; SK-MEL-28.
Holding throughout (test): NCI tumour cell line growth inhibition, 48 h

In the case of `Cc1ccc2c(O)cc(-c3ccc(C)s3)nc2n1`, the GI50 is 0.443 µM (active) in the assay on 786-0; 0.762 µM (active) in the assay on A498; 0.459 µM (active) in the assay with COLO 205; 0.993 µM (active) in the assay with DU-145; 0.526 µM (active) in the assay on HT-29; 0.472 µM (active) in the assay with LOX IMVI. Besides, the GI50 is 0.0264 µM (active) in the assay with MDA-MB-435; 0.0213 µM (active) in the assay with MDA-N; 0.624 µM (active) in the assay on MOLT-4; 0.357 µM (active) in the assay on NCI-H226; 12.7 µM (inactive) in the assay with OVCAR-4; 0.139 µM (active) in the assay on SK-MEL-5. Moreover, the GI50 with SNB-19 is 0.644 µM (active); with SNB-75, 0.254 µM (active); in the assay on T47D it was 0.506 µM (active); with TK-10 it was 19.3 µM (inactive); with U-251 it was 0.413 µM (active); with UACC-257 it was 16.6 µM (inactive). Also, in the assay on UO-31, the GI50 is 0.439 µM (active).
On to `OCC1OC(O[C@H]2CN3[C@H](O)[C@@H](O)[C@H](O)[C@H]3C2O)C(O)C(O)C1O` (some centres undefined), for which the GI50 with 786-0, with A498, with COLO 205, in the assay with DU-145, in the assay with HT-29 and in the assay with LOX IMVI was > 100 µM (inactive) each time. Moreover, the GI50 with MDA-MB-435, in the assay on MDA-N, in the assay on MOLT-4, with NCI-H226, with OVCAR-4 and in the assay on SK-MEL-28 was > 100 µM (inactive) throughout. Further, the GI50 with SK-MEL-5, with SNB-19, with T47D, with TK-10, in the assay on U-251 and in the assay on UACC-257 was > 100 µM (inactive) in each case. The GI50 with UO-31 was > 100 µM (inactive).
Take `NC1(C(=O)O)CCCC1C(=O)O` (centres undefined): the GI50 in the assay with 786-0, in the assay on A498, with COLO 205, in the assay on DU-145, with HT-29 and in the assay on LOX IMVI was > 100 µM (inactive) each time. The GI50 in the assay on MDA-MB-435, with MDA-N, in the assay with MOLT-4, with OVCAR-4, in the assay on SK-MEL-28 and in the assay on SK-MEL-5 was > 100 µM (inactive) in each case. The GI50 in the assay with SNB-19, in the assay with SNB-75, with T47D, in the assay on TK-10, in the assay with U-251 and in the assay on UACC-257 was > 100 µM (inactive) each time. In the assay with UO-31, the GI50 was > 100 µM (inactive).
Take `NS(=O)(=O)c1nnc(NC(=O)CCC(=O)O)s1`: the GI50 with 786-0, in the assay with A498, with COLO 205, with DU-145, with HT-29 and with LOX IMVI was > 100 µM (inactive) throughout. The GI50 in the assay on MDA-MB-435, with MDA-N, with MOLT-4, in the assay with NCI-H226, with OVCAR-4 and in the assay on SK-MEL-28 was > 100 µM (inactive) in each case. Moreover, the GI50 with SK-MEL-5, in the assay with SNB-19, with T47D, with TK-10, in the assay on U-251 and with UACC-257 was > 100 µM (inactive) each time. The GI50 in the assay on UO-31 is > 100 µM (inactive).
For `CSc1cc(Cl)c(C)cc1S(=O)(=O)NC(=O)NNc1ccc(Cl)cc1`, the GI50 with 786-0, in the assay on A498, in the assay with COLO 205, in the assay with DU-145, with HT-29 and with LOX IMVI was > 100 µM (inactive) throughout. Also, the GI50 with MDA-MB-435 was > 100 µM (inactive); in the assay with MDA-N, > 100 µM (inactive); in the assay on MOLT-4, 46.6 µM (inactive); in the assay on NCI-H226 it was 56 µM (inactive); in the assay on OVCAR-4, > 100 µM (inactive); with SK-MEL-28, > 100 µM (inactive). In addition, the GI50 was 69.5 µM (inactive) in the assay on SK-MEL-5; > 100 µM (inactive) in the assay on SNB-19; > 100 µM (inactive) in the assay on SNB-75; > 100 µM (inactive) in the assay on T47D; > 100 µM (inactive) in the assay with U-251.
Turning to `COc1ccc(-c2nc3cc(F)ccc3s2)cc1O`, the GI50 was 18.9 µM (inactive) in the assay with 786-0; 29.7 µM (inactive) in the assay on A498; 28.7 µM (inactive) with COLO 205; 38 µM (inactive) in the assay with DU-145; 26.4 µM (inactive) with HT-29; 21.1 µM (inactive) with LOX IMVI. Further, the GI50 with MDA-MB-435 was 56.1 µM (inactive); in the assay on MDA-N it was 57.3 µM (inactive); in the assay with MOLT-4, > 100 µM (inactive); in the assay with NCI-H226 it was 23.8 µM (inactive); in the assay on OVCAR-4, 28.8 µM (inactive); in the assay on SK-MEL-28, 75.7 µM (inactive). In addition, the GI50 is 22.5 µM (inactive) in the assay with SK-MEL-5; 61.7 µM (inactive) in the assay on SNB-19; 0.514 µM (active) in the assay on T47D; 16.2 µM (inactive) with TK-10; 30.1 µM (inactive) with U-251; 24.9 µM (inactive) with UACC-257. For the same molecule, the GI50 in the assay on UO-31 was 30.8 µM (inactive).
Turning to `CCCN(CCC)C1CCc2c(ccc3cc[nH]c23)C1` (centres undefined), the GI50 in the assay on 786-0 was > 100 µM (inactive); with A498 it was > 100 µM (inactive); in the assay on COLO 205, 29.8 µM (inactive); in the assay with DU-145 it was > 100 µM (inactive); in the assay with HT-29, 33.5 µM (inactive); in the assay with MDA-MB-435 it was 89.3 µM (inactive). Moreover, the GI50 with MDA-N is > 100 µM (inactive); with MOLT-4, 25.2 µM (inactive); with NCI-H226, > 100 µM (inactive); in the assay on OVCAR-4 it was > 100 µM (inactive); in the assay with SK-MEL-28 it was 31.9 µM (inactive); in the assay on SK-MEL-5 it was 20.7 µM (inactive). The GI50 in the assay on SNB-19 is > 100 µM (inactive); in the assay with SNB-75, 25.6 µM (inactive); in the assay on T47D, > 100 µM (inactive); in the assay with TK-10, > 100 µM (inactive); in the assay on U-251, > 100 µM (inactive); with UACC-257, 26.7 µM (inactive). Further, in the assay with UO-31, the GI50 is 49 µM (inactive).
As to `NC1CCCCC1NCCNC1CCCCC1N` (centres undefined), the GI50 is > 100 µM (inactive) in the assay with 786-0; > 100 µM (inactive) in the assay on A498; 15.9 µM (inactive) with COLO 205; > 100 µM (inactive) with DU-145; 17.7 µM (inactive) in the assay with HT-29; 86.5 µM (inactive) with LOX IMVI. Besides, the GI50 with MDA-MB-435 is > 100 µM (inactive); in the assay on MDA-N, > 100 µM (inactive); with MOLT-4, 36.1 µM (inactive); in the assay on NCI-H226, > 100 µM (inactive); in the assay on OVCAR-4, 47.2 µM (inactive); in the assay on SK-MEL-28 it was > 100 µM (inactive). The GI50 in the assay with SK-MEL-5 was > 100 µM (inactive); with SNB-19 it was > 100 µM (inactive); in the assay with T47D it was > 100 µM (inactive); in the assay with TK-10, > 100 µM (inactive); with U-251 it was 30.5 µM (inactive); in the assay with UACC-257 it was > 100 µM (inactive). Moreover, the GI50 with UO-31 is > 100 µM (inactive).
For `O=[N+]([O-])c1ccc2c(c1)n1c(N3CCCC3)[n+]3ccccc3c1c1c3ccccn3c(N3CCCC3)[n+]21.[O-][Cl+3]([O-])([O-])[O-].[O-][Cl+3]([O-])([O-])[O-]`, the GI50 is > 100 µM (inactive) with 786-0; > 100 µM (inactive) with A498; 54 µM (inactive) in the assay on COLO 205; > 100 µM (inactive) in the assay on DU-145; > 100 µM (inactive) in the assay with LOX IMVI; > 100 µM (inactive) with MDA-MB-435. For the same molecule, the GI50 is > 100 µM (inactive) in the assay on MDA-N; 43.2 µM (inactive) in the assay with MOLT-4; 44.3 µM (inactive) in the assay on NCI-H226; > 100 µM (inactive) in the assay on OVCAR-4; > 100 µM (inactive) with SK-MEL-28; > 100 µM (inactive) in the assay on SK-MEL-5. Further, the GI50 in the assay on SNB-19 is 45 µM (inactive); in the assay with SNB-75, 44 µM (inactive); with T47D, > 100 µM (inactive); with TK-10, > 100 µM (inactive); with U-251 it was 36.7 µM (inactive); with UACC-257, > 100 µM (inactive).
As for `O=C1NCCN1/N=C/c1c(Cl)n(-c2ccccc2)c2ccccc12`, the GI50 with 786-0 is 26.1 µM (inactive); with A498 it was 17.5 µM (inactive); in the assay with COLO 205, 14.3 µM (inactive); in the assay with DU-145, 14.6 µM (inactive); with HT-29, 17.4 µM (inactive); in the assay with LOX IMVI, 13.5 µM (inactive). In addition, the GI50 in the assay on MDA-MB-435 is 12.4 µM (inactive); with MDA-N, 9.25 µM (inactive); with MOLT-4, 36.9 µM (inactive); in the assay with NCI-H226 it was 20.4 µM (inactive); with OVCAR-4, 48.1 µM (inactive); in the assay with SK-MEL-5 it was 15.5 µM (inactive). Further, the GI50 with SNB-19 is 23.1 µM (inactive); with SNB-75, 21.1 µM (inactive); with T47D it was 15.2 µM (inactive); with TK-10, 14.8 µM (inactive); with U-251, 21.7 µM (inactive); with UACC-257, 22.4 µM (inactive). Besides, the GI50 with UO-31 was 19.1 µM (inactive).
`COc1ccc(C)cc1NC(=S)C#N`: the GI50 in the assay with 786-0 was > 100 µM (inactive); in the assay on A498 it was > 100 µM (inactive); in the assay on COLO 205 it was > 100 µM (inactive); in the assay with DU-145, > 100 µM (inactive); in the assay with HT-29, 30.8 µM (inactive); with LOX IMVI, > 100 µM (inactive). The GI50 in the assay with MDA-MB-435 is > 100 µM (inactive); with MDA-N, > 100 µM (inactive); with NCI-H226 it was 27.5 µM (inactive); with SK-MEL-28 it was > 100 µM (inactive); in the assay on SK-MEL-5 it was > 100 µM (inactive); in the assay with SNB-19, 28.9 µM (inactive). Further, the GI50 with SNB-75 is 25.1 µM (inactive); in the assay with T47D, > 100 µM (inactive); in the assay on TK-10 it was 31.9 µM (inactive); with U-251, > 100 µM (inactive); in the assay on UACC-257 it was 35.3 µM (inactive).

Source of the values: ChEMBL document CHEMBL1201862, “PubChem BioAssay data set” (2004).
